The record followed here is patent publication US5010058A, “3,5,6-substituted derivatives of 1,2-O-isopropylidene-α,D-glucofuranose and intermediates for preparing these derivatives” (501 Greenwich Pharmaceuticals Incorporated, priority 1989, dated 1991).

In the assay the test system is normal spleen cells / splenic T-lymphocytes (Con-A stimulated). Kind of assay: Con-A blastogenic response of normal spleen cells (3H-thymidine incorporation). It counts as cell-based, mouse (C57Bl/6). To be noted: for Blastogenic response of normal spleen cells to Con-A; % effect / inhibition at 1 µg/mL / inhibition at 10 µg/mL / inhibition at 25 µg/mL / inhibition at 100 µg/mL / inhibition at 300 µg/mL / inhibition at 750 µg/mL: percent change from no compound; for Blastogenic response of normal spleen cells to Con-A; % effect: 4320 min; for Blastogenic response of normal spleen cells to Con-A: triplicates ± SD; for inhibition at 1 µg/mL / inhibition at 10 µg/mL / inhibition at 25 µg/mL / inhibition at 100 µg/mL / inhibition at 300 µg/mL / inhibition at 750 µg/mL: Mus musculus, T-lymphocyte, 72 h, read-out: Blastogenic response of normal spleen cells to Con-A, % effect. From the text:
A simple method is used to screen compounds for their ability to modulate T-lymphocyte activity which comprises assessing the capacity of the compounds to alter the activation of murine spleen cells in response to T-lymphocyte mitogen activators, such as concanavalin-A (Con-A). The method used to measure the effects of the compounds of the present invention on the blastogenic response of spleen cells to the T-lymphocyte mitogen, (i.e., Con-A), is as follows.
Spleen cells were removed from normal C57Bl/6 mice and homogenized to obtain a single cell suspension. Erythrocytes were lysed by hypotonic shock. Upon determination of the viability and concentration of the remaining lymphoid cells, they were adjusted to a concentration of 4×10^6 /ml. These spleen cells (2×10^5 cells per […]) were seeded into wells of microtiter plates with the compounds of the present invention having the following dose concentrations:
Con-A was also added to these cultures at a final concentration of […]. These cells were cultured for 3 days at 37° C. in a humidified atmosphere of 5% CO2 in air. For the last 18 hours of culture, […] H-thymidine was added to each well. The cells were then precipitated by a multichannel harvester. The amount of ^3 H-thymidine incorporated by the cultured cells were measured in a liquid scintillation counter (Disintegrations per min., DPM). All assays were conducted in triplicate.
The incubation medium used for the blastogenesis assays was RPMI-1640 medium containing 10% fetal bovine serum, […] streptomycin, 100 U/ml penicillin, […] Hepes buffer solution, 5×10^-5 M 2-mercaptoethanol and 2 mM glutamine.
^a Experimental compounds were first suspended in DMSO or ethanol,
^b The effect of experimental compounds on the blastogenic response o
A general note: Incorporation of labelled thymidine or its analogues reports DNA synthesis.

Where [1] appears, read: Con-A 1 ug/ml, compound 1 ug/ml.
Where [2] appears, read: Con-A 1 ug/ml, compound 10 ug/ml.
[3] abbreviates: Con-A 1 ug/ml, compound 25 ug/ml.
Where [4] appears, read: Con-A 1 ug/ml, compound 100 ug/ml.
The mark [5] stands for this setting: Con-A 1 ug/ml, compound 300 ug/ml.
[6] abbreviates: Con-A 1 ug/ml, compound 750 ug/ml.
Where [7] appears, read: Con-A 4 ug/ml, compound 1 ug/ml.
The mark [8] stands for this setting: Con-A 4 ug/ml, compound 10 ug/ml.
Setting [9] is: Con-A 4 ug/ml, compound 25 ug/ml.
The mark [10] stands for this setting: Con-A 4 ug/ml, compound 100 ug/ml.
Setting [11] is: Con-A 4 ug/ml, compound 300 ug/ml.
Setting [12] is: Con-A 4 ug/ml, compound 750 ug/ml.

Where two headings read alike, the source gives them in different places.

In the case of `CCCCCCCNC[C@H]1OC(C)(C)O[C@@H]2[C@H]3OC(C)(C)O[C@H]3O[C@@H]21` [Ex. 1, 1,2:3,5-Di-O-isopropylidene-6-deoxy-6-aminoheptyl-α, D-glucofuranose], the “Blastogenic response of normal spleen cells to Con-A; % effect” value (shortened to “Blastogenic response … % effect”) under setting [1] is reported as “+29%”; the “Blastogenic response … % effect” value under setting [2] is reported as -26%; the “Blastogenic response … % effect” value under setting [3] is given as -63%; the “Blastogenic response … % effect” value under setting [4] is recorded as -85%; the “Blastogenic response … % effect” value under setting [5] is on record as -93%; the “Blastogenic response … % effect” value under setting [6] is reported as -87%. The “Blastogenic response … % effect” value by setting is: under setting [7], “+20%”; under setting [8], -67%; under setting [9], -94%; under setting [10], -95%; under setting [11], -97%; under setting [12], -98%. The “Blastogenic response of normal spleen cells to Con-A” value was 93,328 ± 15,583 cpm under setting [1]; 53,439 ± 9,464 cpm under setting [2]; 26,920 ± 10,528 cpm under setting [3]; 10,705 ± 9,501 cpm under setting [4]; 5,398 ± 4,008 cpm under setting [5]; 19,688 ± 7,148 cpm under setting [6]. In addition, the “Blastogenic response of normal spleen cells to Con-A” value reads like this: under setting [7], 116,263 ± 2,521 cpm; under setting [8], 32,032 ± 1,999 cpm; under setting [9], 6,201 ± 1,410 cpm; under setting [10], 4,880 ± 3,619 cpm; under setting [11], 3,097 ± 573 cpm; under setting [12], 2,089 ± 35 cpm.

For the compound `CCCCCCCNCC(O)C1OC2OC(C)(C)OC2C1OCCCCCCC` [Ex. 4, 1,2-O-Isopropylidene-3-O-(n-heptyl)-6-deoxy-6-aminoheptyl-α, D-glucofuranose], the “Blastogenic response of normal spleen cells to Con-A” value by setting is: under setting [1], 22,026 ± 9,838 cpm; under setting [2], 3,406 ± 422 cpm; under setting [3], 3,575 ± 827 cpm; under setting [4], 5,241 ± 2,071 cpm; under setting [5], 9,102 ± 6,857 cpm; under setting [6], 3,762 ± 1,201 cpm. Besides, the “Blastogenic response of normal spleen cells to Con-A” value runs as follows: under setting [7], 41,151 ± 9,885 cpm; under setting [8], 7,789 ± 7,636 cpm; under setting [9], 13,114 ± 8,696 cpm; under setting [10], 7,102 ± 6,851 cpm; under setting [11], 4,919 ± 645 cpm; under setting [12], 3,128 ± 99 cpm. Also, the inhibition at 1 µg/mL by setting is: under setting [1], 70%; under setting [7], 58%. For the same compound, the inhibition at 10 µg/mL runs as follows: under setting [2], 95%; under setting [8], 92%. The inhibition at 25 µg/mL by setting is: under setting [3], 95%; under setting [9], 86%. Besides, the inhibition at 100 µg/mL is, setting by setting: under setting [4], 93%; under setting [10], 93%. For the same compound, the inhibition at 300 µg/mL was 87% under setting [5] and 95% under setting [11]. In addition, the inhibition at 750 µg/mL under setting [6] turned out to be 95% and the inhibition at 750 µg/mL under setting [12] was determined as 97%.

Take `CCCCCCCOC(C)C1OC2OC(C)(C)OC2C1O` [Ex. 5, 1,2-O-Isopropylidene-5-O-n-heptyl-6-deoxy α, D-glucofuranose]: the “Blastogenic response of normal spleen cells to Con-A” value by setting is: under setting [1], 91,612 ± 15,530 cpm; under setting [2], 79,822 ± 15,967 cpm; under setting [3], 63,177 ± 13,102 cpm; under setting [4], 8,553 ± 9,274 cpm; under setting [5], 8,698 ± 786 cpm; under setting [6], 9,487 ± 7,951 cpm. Besides, the “Blastogenic response of normal spleen cells to Con-A” value was 116,377 ± 12,433 cpm under setting [7]; 92,190 ± 13,256 cpm under setting [8]; 62,068 ± 3,736 cpm under setting [9]; 2,299 ± 490 cpm under setting [10]; 5,932 ± 2,770 cpm under setting [11]; 4,494 ± 2,952 cpm under setting [12]. Moreover, the inhibition at 1 µg/mL by setting is: under setting [1], -27%; under setting [7], -20%. The inhibition at 10 µg/mL is, setting by setting: under setting [2], -11%; under setting [8], 5%. For the same compound, the inhibition at 25 µg/mL under setting [3] was 13% and the inhibition at 25 µg/mL under setting [9] was 36%. In addition, the inhibition at 100 µg/mL was 88% under setting [4] and 98% under setting [10]. Also, the inhibition at 300 µg/mL runs as follows: under setting [5], 88%; under setting [11], 94%. The inhibition at 750 µg/mL stood at 87% under setting [6] and 95% under setting [12].
